Data from the NIST ThermoML archive (doi:10.1021/je2000952).
Numbers after ± are expanded uncertainties.

Settings: Liquid, Closed cell (Static) method

**Q.** With `FCC(F)(F)F` [1,1,1,2-tetrafluoroethane] as the compound, how does the “vapor or sublimation pressure” value (283.13 K) read?
**A.** 414.4 ± 1.2 kPa

**Q.** What about the “vapor or sublimation pressure” value (293.14 K) of the same compound?
**A.** 571.1 ± 1.4 kPa

**Q.** What about the “vapor or sublimation pressure” value (303.12 K) of the same compound?
**A.** 769.2 ± 1.8 kPa

**Q.** What about the “vapor or sublimation pressure” value (313.11 K) of the same compound?
**A.** 1014.9 ± 2.3 kPa

**Q.** And the “vapor or sublimation pressure” value (323.17 K)?
**A.** 1318.5 ± 2.9 kPa

**Q.** And the “vapor or sublimation pressure” value (333.16 K)?
**A.** 1681.1 ± 3.6 kPa

**Q.** And the “vapor or sublimation pressure” value (343.16 K)?
**A.** 2117.3 ± 4.3 kPa

**Q.** For `C=C(F)C(F)(F)F` [2,3,3,3-tetrafluoro-1-propene], which “vapor or sublimation pressure” value (245.65 K) is on record?
**A.** 110.3 ± 0.4 kPa

**Q.** What about the “vapor or sublimation pressure” value (248.15 K) of the same compound?
**A.** 122.6 ± 0.4 kPa

**Q.** What about the “vapor or sublimation pressure” value (250.65 K) of the same compound?
**A.** 136.1 ± 0.4 kPa

**Q.** What about the “vapor or sublimation pressure” value (253.15 K) of the same compound?
**A.** 150.7 ± 0.5 kPa

**Q.** What about the “vapor or sublimation pressure” value (255.65 K) of the same compound?
**A.** 166.4 ± 0.5 kPa

**Q.** And the “vapor or sublimation pressure” value (258.15 K)?
**A.** 183.6 ± 0.6 kPa

**Q.** What about the “vapor or sublimation pressure” value (260.65 K) of the same compound?
**A.** 201.9 ± 0.6 kPa

**Q.** What about the “vapor or sublimation pressure” value (263.15 K) of the same compound?
**A.** 221.6 ± 0.6 kPa

**Q.** And the “vapor or sublimation pressure” value (265.65 K)?
**A.** 242.5 ± 0.7 kPa

**Q.** What about the “vapor or sublimation pressure” value (268.15 K) of the same compound?
**A.** 265.2 ± 0.7 kPa

**Q.** And the “vapor or sublimation pressure” value (270.65 K)?
**A.** 289.7 ± 0.8 kPa

**Q.** And the “vapor or sublimation pressure” value (273.15 K)?
**A.** 315.7 ± 0.8 kPa

**Q.** And the “vapor or sublimation pressure” value (275.65 K)?
**A.** 343.3 ± 0.9 kPa

**Q.** And the “vapor or sublimation pressure” value (278.15 K)?
**A.** 372.8 ± 1 kPa

**Q.** What about the “vapor or sublimation pressure” value (280.65 K) of the same compound?
**A.** 404.1 ± 1 kPa

**Q.** And the “vapor or sublimation pressure” value (283.15 K)?
**A.** 437.4 ± 1.1 kPa

**Q.** What about the “vapor or sublimation pressure” value (285.65 K) of the same compound?
**A.** 472.9 ± 1.2 kPa

**Q.** What about the “vapor or sublimation pressure” value (288.15 K) of the same compound?
**A.** 510.3 ± 1.2 kPa

**Q.** And the “vapor or sublimation pressure” value (290.65 K)?
**A.** 549.9 ± 1.3 kPa

**Q.** What about the “vapor or sublimation pressure” value (293.16 K) of the same compound?
**A.** 591.8 ± 1.4 kPa

**Q.** And the “vapor or sublimation pressure” value (295.65 K)?
**A.** 636 ± 1.5 kPa

**Q.** And the “vapor or sublimation pressure” value (298.16 K)?
**A.** 682.7 ± 1.6 kPa

**Q.** And the “vapor or sublimation pressure” value (300.66 K)?
**A.** 731.9 ± 1.7 kPa

**Q.** And the “vapor or sublimation pressure” value (303.16 K)?
**A.** 783.6 ± 1.8 kPa

**Q.** And the “vapor or sublimation pressure” value (305.66 K)?
**A.** 838.1 ± 1.9 kPa

**Q.** And the “vapor or sublimation pressure” value (308.16 K)?
**A.** 895.3 ± 2 kPa

**Q.** What about the “vapor or sublimation pressure” value (310.66 K) of the same compound?
**A.** 955.5 ± 2.2 kPa

**Q.** What about the “vapor or sublimation pressure” value (313.16 K) of the same compound?
**A.** 1018.5 ± 2.3 kPa

**Q.** And the “vapor or sublimation pressure” value (315.66 K)?
**A.** 1084 ± 2.4 kPa

**Q.** And the “vapor or sublimation pressure” value (318.16 K)?
**A.** 1153.4 ± 2.5 kPa

**Q.** And the “vapor or sublimation pressure” value (320.66 K)?
**A.** 1225.8 ± 2.7 kPa

**Q.** What about the “vapor or sublimation pressure” value (323.16 K) of the same compound?
**A.** 1301.6 ± 2.8 kPa

**Q.** What about the “vapor or sublimation pressure” value (325.65 K) of the same compound?
**A.** 1381 ± 3 kPa

**Q.** And the “vapor or sublimation pressure” value (328.15 K)?
**A.** 1463.9 ± 3.1 kPa

**Q.** What about the “vapor or sublimation pressure” value (330.66 K) of the same compound?
**A.** 1550.6 ± 3.3 kPa

**Q.** And the “vapor or sublimation pressure” value (333.16 K)?
**A.** 1641.1 ± 3.5 kPa

**Q.** And the “vapor or sublimation pressure” value (335.66 K)?
**A.** 1735.7 ± 3.7 kPa

**Q.** What about the “vapor or sublimation pressure” value (338.16 K) of the same compound?
**A.** 1833.9 ± 3.8 kPa

**Q.** What about the “vapor or sublimation pressure” value (340.66 K) of the same compound?
**A.** 1936.6 ± 4 kPa

**Q.** And the “vapor or sublimation pressure” value (343.15 K)?
**A.** 2043.7 ± 4.2 kPa
